In brackets after ≈: the same amount, converted by molar mass. Where two headings read alike, the source gives them in different places.
Tests used:
Format in all cases: cell-based
[1] = system: HIV-1(IIIB); experiment: Inhibition of HIV-1 induced syncytium formation in CEM cells, wild type; conditions: Human immunodeficiency virus 1, IIIB, CCRF-CEM, 96 h, Table 2B, WT = HIV-1(IIIB), day 4, averages of 2 to 3 independent experiments, read-out: Antiviral Activity of Comparative Compounds EC50, WT
Source text: (§1) CEM cells were obtained from the American Tissue Cell Culture Collection (Rockville, Md.). HIV-1(IIIB) was originally obtained from the culture supernatant of persistently HIV-1-infected H9 cells and was provided by R. C. Gallo and M. Popovic (National Cancer Institute, National Institutes of Health, Bethesda, Md.). […] 67: 5353-5359 (1993); HIV-1/Lys-138 ("Lys-138") was selected for resistance against TSAO-m^3T as described in Balzarini et al, Virology 192: 246-253 (1993) and Balzarini et al, Proc. Nat. Acad. Sci. USA 90: 6952-6956 (1993); HIV-1/181-Cys ("181-Cys") was selected for resistance against pyridinone L-697,661 as described in Balzarini et al, Virology 192: 246-253 (1993); and HIV-1/188-His ("188-His") was selected for resistance against HEPT as described in Balzarini et al, Mol. Pharmocol. 44: 694-701 (1993). 188-His was then further converted to HIV-1/188-Leu "188-Leu") upon further passage in cell culture in the absence of the HEPT.
(§2) CEM cells were suspended at ≈300,000 cells per ml of culture medium and infected with approximately 100 CCID50 (CCID50 being the 50% cell culture infective dose) of HIV-1(IIIB) or one of the HIV-1 RT mutant strains described above. Then 100 μl of the infected cell suspensions was added to 200 μl microtiter plate wells containing 100 μl of appropriate serial (5-fold) dilutions of the test compounds. The inhibitory effect of the test compounds on HIV-1 induced syncytium formation in CEM cells was examined microscopically on day 4 post infection.

[2] = system: HIV-1/100-Ile; experiment: Inhibition of HIV-1 induced syncytium formation in CEM cells, RT mutant 100-Ile; conditions: Human immunodeficiency virus 1, CCRF-CEM, 96 h
Source text: as §1, §2

[3] = system: HIV-1/106-Ala; experiment: Inhibition of HIV-1 induced syncytium formation in CEM cells, RT mutant 106-Ala; conditions: Human immunodeficiency virus 1, CCRF-CEM, 96 h
Source text: as §1, §2

[4] = system: HIV-1/Lys-138; experiment: Inhibition of HIV-1 induced syncytium formation in CEM cells, RT mutant 138-Lys; conditions: Human immunodeficiency virus 1, CCRF-CEM, 96 h
Source text: as §1, §2

[5] = system: HIV-1/181-Cys; experiment: Inhibition of HIV-1 induced syncytium formation in CEM cells, RT mutant 181-Cys; conditions: Human immunodeficiency virus 1, CCRF-CEM, 96 h
Source text: as §1, §2

[6] = in vitro; conditions: human, cem cells, CC50 (50% cytostatic concentration), Table 2B; CEM cell proliferation; averages of 2 to 3 independent experiments
Source text: as §1
^b 50% cytostatic concentration (i.e., compound concentration require
to inhibit CEM cell proliferation by 50%)

[7] = Table 2B, day 4, averages of 2 to 3 independent experiments, read-out: Antiviral Activity of Comparative Compounds EC50, 100-Ile
[8] = Table 2B, day 4, averages of 2 to 3 independent experiments, read-out: Antiviral Activity of Comparative Compounds EC50, 106-Ala
[9] = Table 2B, day 4, averages of 2 to 3 independent experiments, read-out: Antiviral Activity of Comparative Compounds EC50, 138-Lys
[10] = Table 2B, day 4, averages of 2 to 3 independent experiments, read-out: Antiviral Activity of Comparative Compounds EC50, 181-Cys

| SMILES | EC50 [1] | EC50 [2, 7] | EC50 [3, 8] | EC50 [4, 9] | EC50 [5, 10] | CC50 [6] | EC50 ([2]; read-out: Antiviral Activity of Comparative Compounds EC50, 100-Ile, Table 2B, day 4, averages of 2 to 3 independent experiments) | EC50 ([3]; read-out: Antiviral Activity of Comparative Compounds EC50, 106-Ala, Table 2B, day 4, averages of 2 to 3 independent experiments) | EC50 ([4]; read-out: Antiviral Activity of Comparative Compounds EC50, 138-Lys, Table 2B, day 4, averages of 2 to 3 independent experiments) | EC50 ([5]; read-out: Antiviral Activity of Comparative Compounds EC50, 181-Cys, Table 2B, day 4, averages of 2 to 3 independent experiments) |
| --- | --- | --- | --- | --- | --- | --- | --- | --- | --- | --- |
| CC(C)OC(=O)c1cc(NC(=S)c2ccco2)ccc1Cl [Compound 86] | 0.1 µg/mL (≈ 0.309 µM) | 5 µg/mL (≈ 15.4 µM) | 5 µg/mL (≈ 15.4 µM) | 4 µg/mL (≈ 12.4 µM) | 5 µg/mL (≈ 15.4 µM) | 7.4 µg/mL (≈ 22.9 µM) |  |  |  |  |
| Cc1ccoc1C(=S)Nc1ccc(Cl)c(C(=O)OC(C)C)c1 [Compound 87] | 0.02 µg/mL (≈ 0.0592 µM) | 3 µg/mL (≈ 8.88 µM) | 1 µg/mL (≈ 2.96 µM) | 0.55 µg/mL (≈ 1.63 µM) | 0.53 µg/mL (≈ 1.57 µM) | 15 µg/mL (≈ 44.4 µM) |  |  |  |  |
| Cc1ccsc1C(=S)Nc1ccc(Cl)c(C(=O)OC(C)C)c1 [Compound 88] | 0.01 µg/mL (≈ 0.0283 µM) | 0.7 µg/mL (≈ 1.98 µM) | 0.6 µg/mL (≈ 1.7 µM) | 0.3 µg/mL (≈ 0.848 µM) | 0.27 µg/mL (≈ 0.763 µM) | 5.2 µg/mL (≈ 14.7 µM) |  |  |  |  |
| CC(C)OC(=O)c1cc(NC(=S)c2cccs2)ccc1Cl [Compound 89] | 0.09 µg/mL (≈ 0.265 µM) | 3 µg/mL (≈ 8.83 µM) | 4 µg/mL (≈ 11.8 µM) | 1.9 µg/mL (≈ 5.59 µM) | 4 µg/mL (≈ 11.8 µM) | 4.9 µg/mL (≈ 14.4 µM) |  |  |  |  |
| COc1ccccc1C(=S)Nc1ccc(Cl)c(C(=O)OC(C)C)c1 [Compound 90] | 0.19 µg/mL (≈ 0.522 µM) | 3.5 µg/mL (≈ 9.62 µM) | 6 µg/mL (≈ 16.5 µM) | 0.7 µg/mL (≈ 1.92 µM) | 5.5 µg/mL (≈ 15.1 µM) | 27 µg/mL (≈ 74.2 µM) |  |  |  |  |
| Cc1ccccc1C(=S)Nc1ccc(Cl)c(C(=O)OC(C)C)c1 [Compound 91] | 0.45 µg/mL (≈ 1.29 µM) | 4.5 µg/mL (≈ 12.9 µM) | 8.5 µg/mL (≈ 24.4 µM) | 5 µg/mL (≈ 14.4 µM) | 7.5 µg/mL (≈ 21.6 µM) | 5.8 µg/mL (≈ 16.7 µM) |  |  |  |  |
| CC(C)OC(=O)c1cc(NC(=S)c2ccsc2)ccc1Cl [Compound 92] | 0.02 µg/mL (≈ 0.0588 µM) | 0.4 µg/mL (≈ 1.18 µM) | 0.75 µg/mL (≈ 2.21 µM) | 0.5 µg/mL (≈ 1.47 µM) | 0.37 µg/mL (≈ 1.09 µM) | 4.3 µg/mL (≈ 12.7 µM) |  |  |  |  |
| CC(C)(C)ON=Cc1cc(NC(=S)c2ccccc2)ccc1Cl [Compound 93] | 0.03 µg/mL (≈ 0.0865 µM) | 2 µg/mL (≈ 5.77 µM) | 0.1 µg/mL (≈ 0.288 µM) | 0.08 µg/mL (≈ 0.231 µM) | 0.7 µg/mL (≈ 2.02 µM) | 9.7 µg/mL (≈ 28 µM) |  |  |  |  |
| Cc1ccoc1C(=S)Nc1ccc(Cl)c(C=NOC(C)C)c1 [Compound 94] | 0.01 µg/mL (≈ 0.0297 µM) | 0.75 µg/mL (≈ 2.23 µM) | 0.5 µg/mL (≈ 1.48 µM) | 0.15 µg/mL (≈ 0.445 µM) | 0.6 µg/mL (≈ 1.78 µM) | 3.1 µg/mL (≈ 9.2 µM) |  |  |  |  |
| Cc1ccsc1C(=S)Nc1ccc(Cl)c(C=NOC(C)C)c1 [Compound 95] | 0.008 µg/mL (≈ 0.0227 µM) | 0.65 µg/mL (≈ 1.84 µM) | 0.08 µg/mL (≈ 0.227 µM) | 0.16 µg/mL (≈ 0.453 µM) | 0.5 µg/mL (≈ 1.42 µM) | 13 µg/mL (≈ 36.8 µM) |  |  |  |  |
| CC(C)ON=Cc1cc(NC(=S)c2ccccc2)ccc1Cl [Compound 96] | 0.05 µg/mL (≈ 0.15 µM) | > 1 µg/mL | 0.75 µg/mL (≈ 2.25 µM) | 0.17 µg/mL (≈ 0.511 µM) | > 1 µg/mL | 9 µg/mL (≈ 27 µM) |  |  |  |  |
| Cc1occc1C(=S)Nc1ccc(Cl)c(C=NOC(C)C)c1 [Compound 97] | 0.009 µg/mL (≈ 0.0267 µM) | 3.5 µg/mL (≈ 10.4 µM) | ≥ 4 µg/mL | 2 µg/mL (≈ 5.94 µM) | 3.3 µg/mL (≈ 9.8 µM) | 3.3 µg/mL (≈ 9.8 µM) |  |  |  |  |
| CC(C)C(OC(=O)c1cc(NC(=S)c2ccccc2F)ccc1Cl)C(C)C [Compound 98] | 0.06 µg/mL (≈ 0.147 µM) | > 1 µg/mL | 0.85 µg/mL (≈ 2.08 µM) | 0.7 µg/mL (≈ 1.72 µM) | > 1 µg/mL | 7.5 µg/mL (≈ 18.4 µM) |  |  |  |  |
| CC(C)C(OC(=O)c1cc(NC(=S)c2ccc[nH]2)ccc1Cl)C(C)C [Compound 99] | 0.1 µg/mL (≈ 0.264 µM) |  |  |  |  | > 100 µg/mL | > 1 µg/mL | > 10 µg/mL | > 10 µg/mL | > 10 µg/mL |
| CC(C)C(OC(=O)c1cc(NC(=S)c2cccn2C)ccc1Cl)C(C)C [Compound 100] | 0.03 µg/mL (≈ 0.0763 µM) | 4 µg/mL (≈ 10.2 µM) | 0.8 µg/mL (≈ 2.04 µM) | 0.4 µg/mL (≈ 1.02 µM) | 0.65 µg/mL (≈ 1.65 µM) | > 100 µg/mL |  |  |  |  |
